Measured values reported in patent US20240376517A1 (THE UNIVERSITY COURT OF THE UNIVERSITY OF EDINBURCH, priority 2021, published 2024).
*1 amine or outer side, *2 acyl side, *3 side chain or, on linkers, in order; H or OH if unused. Where a SMILES comes first, the peptide text is derived from it. [ ]: non-standard residue; d: D form. The star is where a group is joined. ξ: configuration not given here. BODIPY(FL) = CC1=CC(C)=[N+]2C1=Cc1ccc(CCC(=O)*)n1[B-]2(F)F; X1 = CN(C)c1ccc(/N=N/c2ccc(C(=O)*)cc2)cc1; Ethylenediamine = C(CN[*:2])N[*:1]; Ile(3ξ) = CCC(C)[C@H](N)C(=O)O; AMC = Cc1cc(=O)oc2cc(N*)ccc12

Columns and labels:
[1] = tested on: hGzmB (100 nM); details: human, up to 24 h
[2] = tested on: recombinant hGzmB (20 nM); test: buffer-1 (50 mM Tris, 100 mM NaCl, pH 7.4); details: human, 37° C., up to 2 h
[3] = target: T1, human recombinant granzyme B (Homo sapiens, UniProt P10144); test: Reactivity of NIR probes with granzyme B; type: biochemical
Experimental: With the probes in hand (Table 4) they were tested for their reactivity with human recombinant granzyme B to identify a lead candidate. Each probe was tested at a concentration of 25 μM against 20 nM granzyme B and fluorescence was recorded over 2 hours at 37° C. (λex: 620 nm, λem: 660 nm).

[4] = target: T2, hGzmB (Homo sapiens, UniProt P10144); test: Fluorescence assays with recombinant hGzmB; type: biochemical
Experimental: Fluorescence assays with recombinant enzymes. Fluorescence-based assays with enzymes were performed in buffer-1 (50 mM Tris, 100 mM NaCl, pH 7.4) for GzmB, pro-GzmB, GzmA and HNE, or buffer-2 (25 mM HEPES, 0.1% CHAPS, 10 mM DTT, pH 7.5) for caspases and other enzymes. Probes (25 μM) were added to enzymes (20 nM or at the indicated concentrations) in 384-well plates and their fluorescence emission was recorded at 450 nm (for AMC) or 510 nm (for BODIPY) at 37° C. using a Synergy H1 Hybrid reader (BioTek). In experiments with Ac-IEPD-CHO (50 μM), the inhibitor was pre-incubated for 1 h with GzmB before addition of any probe.

[5] = type: in vitro ADME, human
Experimental: Probe (H5 or R7) (25 μM) was incubated with human recombinant granzyme B (15 nM) in Granzyme B buffer for 1.5 h at 37° C. Following incubation, the samples were diluted with MeOH, centrifuged and the supernatant injected into the HPLC/MS. Samples were eluted with 0.1% HCOOH in H2O (A) and 0.1% HCOOH in MBCN (B), with a gradient of 0 to 100% B over 5 minutes and an additional isocratic period of 3 minutes with a flow rate of 1.5 mL min^−1. Reactions were monitored from 220-700 nm and percentage cleaved was determined by comparing peak area of the cleaved probe against the intact probe on MassLynx software.
We first sought to address the stability of probe H5 and R7 and in urine from 3 healthy donors to ensure no cross-reactivity occurred with any other biomolecules that may be present in all urine samples. To do this we monitored the fluorescence response of probe H5 and R7 in urine with and without spiked granzyme B (15 nM) and also assessed stability via HPLC analysis. […] (FIG. 11). It should also be noted that HPLC-MS confirmed the cleavage of probe H5 and R7 after the aspartic acid residue (the natural granzyme B cleavage site).

[6] = target: T1, human recombinant granzyme B; test: HPLC/MS analysis of probe cleavage by granzyme B in urine; type: biochemical; details: after 1 h with granzyme B present
Experimental: Following incubation, the samples were diluted with MeOH, centrifuged and the supernatant injected into the HPLC/MS. Samples were eluted with 0.1% HCOOH in H2O (A) and 0.1% HCOOH in MBCN (B), with a gradient of 0 to 100% B over 5 minutes and an additional isocratic period of 3 minutes with a flow rate of 1.5 mL min^−1. Reactions were monitored from 220-700 nm and percentage cleaved was determined by comparing peak area of the cleaved probe against the intact probe on MassLynx software.

[7] = tested on: mKate-E0771 cancer cells; type: cell-based, mouse
Experimental: FIG. 8. […] Cell viability was determined using a commercially available MTT kit (Invitrogen) with values normalized to untreated cells. Data presented as mean values±SEM (2 independent experiments with 3 replicates for each).

[8] = target: T2, hGzmB; test: HPLC conversion/cleavage of probes by hGzmB; type: biochemical
Excerpt: FIG. 5. HPLC traces of the probe H5 before and after reaction with hGzmB. HPLC chromatogram and mass spectrometry analysis of the probe H5 before and after reaction with increasing concentrations of hGzmB. Mcalc. (intact probe): 1246.6 [M+Na^+]; Mcalc. (cleaved probe): 747.2 [M+H^+].

[9] = tested on: GzmB; details: cited from earlier work
[10] = tested on: E0771 cells alone or in co-culture with CD8+ T cells; test: AZD5363 follow-up: cell death and H5 staining by flow cytometry; type: cell-based, mouse
Experimental: FIG. 10. […] Co-cultures were stained with probe H5 (5 μM) and AF647-Annexin V (10 nM). Excitation/emission wavelengths: 488 nm/525 nm (for probe H5), 633/670 nm (for AF647-Annexin V). c) Percentages of E0771 cells that were double-stained with probe H5 and AF647-Annexin V under the experimental conditions described in a). Data presented as mean values±SEM (n=3).

[11] = tested on: co-cultures of E0771 cells and IL-2-activated CD8+ T cells; test: Drug screening, image-based phenotypic screen with H5; type: cell-based, mouse; details: drug at working concentration plus IL-2 100 U mL^−1, 3 h
Experimental: Drug screening. E0771 (750 cells/well) and freshly isolated murine CD8+ T cells (6,000 cells/well) were plated in 384-well plates as described above. […] H5 (20 μM) and Hoechst 33342 (1 μM) was added for 1 h at 37° C., washed with PBS and imaged under ImageXpress™ XLS (Molecular Devices) using KRB (10% FBS) buffer as media. Fluorescent images (4 sites/well) were acquired under a 40× objective using 405 nm (Hoechst) and 488 nm (H5) excitation wavelengths and data was analysed with MetaXpress software using the Custom Module Editor. Briefly, nuclei were used as seeds to create a pseudo-cell area and granzyme B positive puncta were detected using a top-hat filter (pixel size: 10, circle shape) followed by an average filter (3×3 pixel).

T2 sequence (P10144 21-247): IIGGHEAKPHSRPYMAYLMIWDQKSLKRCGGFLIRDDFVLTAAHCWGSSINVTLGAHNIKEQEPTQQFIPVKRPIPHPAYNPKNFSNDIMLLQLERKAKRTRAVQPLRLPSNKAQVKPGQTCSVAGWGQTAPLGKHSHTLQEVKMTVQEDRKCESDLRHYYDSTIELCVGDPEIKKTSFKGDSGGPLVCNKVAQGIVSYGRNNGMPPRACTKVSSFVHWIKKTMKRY
T1 sequence (P10144 21-247): as above

Compound: Ac-IEPD-{AMC} [listing 1 of 2 here]
- cleaved bond [1]: D-AMC
- not cleaved [2]: <1% cleavage at 20 nM enzyme for 2 h

Compound: Ac-IEPD-aldehyde
- effect of inhibitor pre-incubation on fold change of R7 ([3]; granzyme B pre-incubated with inhibitor): fold change decreased
- effect of inhibitor on fluorescence response of H5 to hGzmB ([4]; Ac-IEPD-CHO 50 μM pre-incubated 1 h with GzmB): drastically reduced the fluorescence response of H5

Compound: CCC(C)[C@H](NC(=O)CCC1=[N+]2C(=Cc3c(C)cc(C)n3[B-]2(F)F)C=C1)C(=O)N[C@@H](CCC(=O)O)C(=O)N1CCC[C@H]1C(=O)N[C@@H](CC(=O)O)C(=O)N[C@@H](C)C(=O)N[C@@H](CC(C)C)C(=O)NCCNC(=O)c1ccc(/N=N/c2ccc(N(C)C)cc2)cc1 (some centres unmarked) [H5] ({BODIPY(FL)}-[Ile(3ξ)]EPDAL-{Ethylenediamine-X1})
- probe cleaved in the urine sample alone (HPLC) [5]: less than 1%
- conversion to the cleaved probe in urine [6]: up to 84%
- cytotoxicity (cell viability) [7]: not cytotoxic
- HPLC conversion (20 nM hGzmB, 2 h) ([8]; 20 nM hGzmB, 2 h): 100%

Compound: CCC(C)[C@H](NC(=O)CCCCCN1/C(=C/C=C/C=C/C2=[N+](C)c3ccc(S(=O)(=O)[O-])cc3C2(C)C)C(C)(C)c2cc(S(=O)(=O)[O-])ccc21)C(=O)N[C@@H](CCC(=O)O)C(=O)N1CCC[C@H]1C(=O)N[C@@H](CC(=O)O)C(=O)N[C@@H](C)C(=O)N[C@@H](CC(C)C)C(=O)NCCOCCOCCOCCOCCNC(=O)C1CCN(S(=O)(=O)c2ccccc2-c2c3ccc(=[N+]4CCc5ccccc54)cc-3oc3cc(N4CCc5ccccc54)ccc23)CC1 (some centres unmarked) [R7]
- conversion from intact to cleaved (HPLC-MS) ([3]; within 2 hours): 100%
- probe cleaved in the urine sample alone (HPLC) [5]: less than 1%
- conversion to the cleaved probe in urine [6]: ≤ 99%

Compound: Ac-IEPD-{AMC} [listing 2 of 2 here]
- Km [9]: 160 µM
- kcat [9]: 0.5 s⁻¹
- LoD ([4]; limit of detection of hGzmB): 25 nM
- cleavage at 20 nM enzyme for 2 h ([8]; 20 nM enzyme, 2 h): < 1%
- cleavage at 100 nM for 24 h ([8]; 100 nM enzyme, 24 h): 10%

Compound: AZD5363 [C5]
- cancer cell death and H5 staining ([10]; AZD5363 on its own, E0771 cells): did not induce significant cancer cell death nor cause H5 staining
- cancer cell death and H5 fluorescence emission ([10]; combination with 100 U mL^−1 IL-2, CD8+ T cell-E0771 co-cultures): caused significant cancer cell death and H5 fluorescence emission
- H5 fluorescence signal compared to IL-2 only controls [11]: Increased fluorescence signals
- H5 fluorescence signal compared to IL-2 only controls ([11]; listed as AZD5363): brightest H5 fluorescence staining
